The record followed here is the Biogen ADME set (Fang et al. 2023).

In brackets after ≈: the same amount, converted by molar mass.

A word on the aqueous solubility: it is how much of the substance goes into solution per volume. A low value points to little dissolved substance.

The conditions of this data set: for aqueous solubility: pH 6.8.

On to `Cc1ccc(NC(=O)CN2CCCN(c3ccc(C(F)(F)F)cn3)CC2)c(F)c1`, for which the MDR1-MDCK efflux ratio was 1.09; the intrinsic clearance, human liver microsomes was 141 mL/min/kg; the intrinsic clearance, rat liver microsomes was determined as 643 mL/min/kg; the aqueous solubility came to 24.6 µg/mL (≈ 59.9 µM).
In turn, `CC(=O)Nc1ncc(C(=O)O)s1` yielded a fraction unbound, human plasma of 0.66 and a fraction unbound, rat plasma of 0.715.
Compound `Cc1cc(CSCc2c(C)noc2C)no1` returned an intrinsic clearance, human liver microsomes of 130 mL/min/kg and an intrinsic clearance, rat liver microsomes of 1910 mL/min/kg.
With `O=C(NC1CCCCC1)C1CCN(c2ccncc2Cl)CC1`, the MDR1-MDCK efflux ratio turned out to be 0.838; the intrinsic clearance, human liver microsomes worked out at 22.4 mL/min/kg; the intrinsic clearance, rat liver microsomes is 257 mL/min/kg; the aqueous solubility stood at 22 µg/mL (≈ 68.4 µM).
For `CN1CCN(S(=O)(=O)c2ccc(-c3cnc(N)c(C(=O)Nc4cccnc4)n3)cc2)CC1`, the MDR1-MDCK efflux ratio is 72.4; the fraction unbound, human plasma worked out at 0.12; the fraction unbound, rat plasma stood at 0.0823; the intrinsic clearance, human liver microsomes was 124 mL/min/kg. The compound also registered an intrinsic clearance, rat liver microsomes of 672 mL/min/kg.
Turning to `Cc1ccc(CCNC(=O)N2CC(C)(C)OC(C)(C)C2)cn1`, the MDR1-MDCK efflux ratio was found to be 22.9; the intrinsic clearance, human liver microsomes was 6.58 mL/min/kg; the intrinsic clearance, rat liver microsomes amounted to 76.4 mL/min/kg; the aqueous solubility came out at 41.1 µg/mL (≈ 135 µM).
Taken in the same sequence, the figures for `Cn1ccc(CN2C(=O)c3ccccc3C2=O)cc1=O` were 1.9, at most 4.74 mL/min/kg, 12.1 mL/min/kg and 50 µg/mL (≈ 187 µM).
Taken in the same sequence, the figures for `Fc1ccc(F)c(-c2nc(C3CCOCC3)nn2-c2cccnc2)c1` were 1.33, at most 4.74 mL/min/kg, 72.8 mL/min/kg and 35.1 µg/mL (≈ 103 µM).
Compound `CN(C(=O)c1cccc(C(=O)O)c1)c1ccccc1` registered an intrinsic clearance, human liver microsomes of at most 4.74 mL/min/kg and an intrinsic clearance, rat liver microsomes of at most 10.7 mL/min/kg.
`C=CC(=O)Nc1cccc(Sc2nc(Nc3ccc(N4CCN(C)CC4)cc3)ncc2Cl)c1` yielded an aqueous solubility of 0.4 µg/mL (≈ 0.832 µM).
In the case of `Cc1ccc(C(=O)NCC#Cc2ccccc2)cn1`, the MDR1-MDCK efflux ratio worked out at 0.579; the intrinsic clearance, human liver microsomes was at most 4.74 mL/min/kg; the intrinsic clearance, rat liver microsomes was found to be 18.8 mL/min/kg; the aqueous solubility was determined as 44.5 µg/mL (≈ 178 µM).
For `Nc1ncnc2c1c(-c1cnc3[nH]ccc3c1)nn2C1CCCC1`, the MDR1-MDCK efflux ratio was found to be 6.9; the fraction unbound, human plasma worked out at 0.0729; the fraction unbound, rat plasma was found to be 0.0603; the intrinsic clearance, human liver microsomes was 101 mL/min/kg. The compound further came in with an intrinsic clearance, rat liver microsomes of 1210 mL/min/kg.
For `Cc1ccccc1C(=O)N1CCC[C@@H]1Cn1nnn(-c2cccs2)c1=O`, the MDR1-MDCK efflux ratio is 1.11; the intrinsic clearance, human liver microsomes stood at 114 mL/min/kg; the intrinsic clearance, rat liver microsomes was 929 mL/min/kg; the aqueous solubility is 49 µg/mL (≈ 133 µM).
For the compound `N#Cc1ccc2ncnc(N[C@H]3CC[C@H](N4CCOCC4)CC3)c2c1`, the MDR1-MDCK efflux ratio came out at 24.6; the intrinsic clearance, human liver microsomes amounted to 9.63 mL/min/kg; the intrinsic clearance, rat liver microsomes was found to be 49.2 mL/min/kg.
Consider `Oc1cccc(CN2CCN(c3ncc(Br)cn3)CC2)c1`, for which the intrinsic clearance, human liver microsomes came out at 29.3 mL/min/kg; the intrinsic clearance, rat liver microsomes came to 303 mL/min/kg; the aqueous solubility amounted to 4.95 µg/mL (≈ 14.2 µM).
For the compound `COc1cc(Nc2ncc3c(n2)-c2ccc(Cl)cc2C(c2c(F)cccc2OC)=NC3)ccc1C(=O)O`, the MDR1-MDCK efflux ratio was 13.5; the intrinsic clearance, human liver microsomes was at most 4.74 mL/min/kg; the intrinsic clearance, rat liver microsomes was 20.5 mL/min/kg; the aqueous solubility amounted to 73.1 µg/mL (≈ 141 µM).
As to `CC1(C)[C@@H]2C[C@H]1[C@@]1(O)[C@@H](C2)Oc2c(ccc(O)c2C(=O)NCCNS(C)(=O)=O)[C@@H]1O`, the MDR1-MDCK efflux ratio stood at 91; the intrinsic clearance, human liver microsomes came to 29.3 mL/min/kg; the intrinsic clearance, rat liver microsomes stood at 134 mL/min/kg.
Taken in the same sequence, the figures for `O=C(Nc1ccc2[nH]ncc2c1)[C@H]1CCCNC1` were 0.38, 14.5 mL/min/kg and 343 mL/min/kg.
Compound `COc1cc(OC)cc(C(=O)Nc2nc3c(s2)COc2ccccc2-3)c1` gave an aqueous solubility of 0.39 µg/mL (≈ 1.06 µM).
Take `CN(CC(=O)Nc1cccc(S(=O)(=O)N2CCCC2)c1)C1CCCCC1`: the MDR1-MDCK efflux ratio turned out to be 2.29; the intrinsic clearance, human liver microsomes came out at 601 mL/min/kg; the intrinsic clearance, rat liver microsomes is 2980 mL/min/kg.
`Cc1cccc(N(C)C(=S)Oc2ccc3ccccc3c2)c1`: the aqueous solubility turned out to be 0.7 µg/mL (≈ 2.28 µM).
Take `O=C(Nc1cccc(-c2nncn2C2CC2)c1)c1cc(-n2cnc(C3CC3)c2)ccn1`: the MDR1-MDCK efflux ratio was found to be 46.4; the fraction unbound, human plasma came out at 0.0183; the fraction unbound, rat plasma is 0.0409; the intrinsic clearance, human liver microsomes was determined as 8.13 mL/min/kg. The same compound came in with an intrinsic clearance, rat liver microsomes of 37.4 mL/min/kg and an aqueous solubility of 45 µg/mL (≈ 109 µM).
In the case of `N#Cc1cccnc1Nc1cnn(Cc2ccccc2)c1`, the intrinsic clearance, human liver microsomes was 24.4 mL/min/kg; the intrinsic clearance, rat liver microsomes turned out to be 850 mL/min/kg; the aqueous solubility was determined as 3.72 µg/mL (≈ 13.5 µM).
Take `Nc1ccc(C(=O)N2CCOCC2)c(Cl)c1`: the MDR1-MDCK efflux ratio was 0.476; the intrinsic clearance, human liver microsomes was at most 4.74 mL/min/kg; the intrinsic clearance, rat liver microsomes is at most 10.7 mL/min/kg; the aqueous solubility came to 38.1 µg/mL (≈ 159 µM).
For the compound `C#CCNC(=O)Cc1coc2cc(OC)ccc12`, the MDR1-MDCK efflux ratio was 0.646; the intrinsic clearance, human liver microsomes is 15.4 mL/min/kg; the intrinsic clearance, rat liver microsomes came out at 183 mL/min/kg; the aqueous solubility amounted to 56.4 µg/mL (≈ 232 µM).
As for `c1cc(-c2nnc(NCc3cncs3)o2)ccn1`, the MDR1-MDCK efflux ratio is 1.9; the intrinsic clearance, human liver microsomes was at most 4.74 mL/min/kg; the intrinsic clearance, rat liver microsomes turned out to be 91.4 mL/min/kg.
On to `COc1cccc(C)c1C(=O)N(C)Cc1ncc[nH]1`, for which the MDR1-MDCK efflux ratio was found to be 6.32; the intrinsic clearance, human liver microsomes was at most 4.74 mL/min/kg; the intrinsic clearance, rat liver microsomes came out at 425 mL/min/kg.
Regarding `Cc1nn(C)c2nc(N3CCN(C)C[C@@H]3c3ccccc3)sc12`, the MDR1-MDCK efflux ratio came to 0.847; the intrinsic clearance, human liver microsomes is 18.5 mL/min/kg; the intrinsic clearance, rat liver microsomes stood at 506 mL/min/kg; the aqueous solubility stood at 45 µg/mL (≈ 137 µM).
Taken in the same sequence, the figures for `CN(CC#N)C(=O)c1cccc(CN2CCCC2)c1` were 2.59, at most 4.74 mL/min/kg, 322 mL/min/kg and 34.9 µg/mL (≈ 136 µM).
Regarding `Cc1cc(C(=O)O)nn1-c1ccccn1`, the intrinsic clearance, human liver microsomes is at most 4.74 mL/min/kg and the intrinsic clearance, rat liver microsomes was at most 10.7 mL/min/kg.
`O=C(NC1(c2ccccc2)CCC1)c1cc(C2CC2)on1`: the MDR1-MDCK efflux ratio was determined as 0.543; the intrinsic clearance, human liver microsomes stood at 8.16 mL/min/kg; the intrinsic clearance, rat liver microsomes stood at 192 mL/min/kg; the aqueous solubility is 8.8 µg/mL (≈ 31.2 µM).
Consider `CN(C)CCOc1cc(-c2cn[nH]c2)ccc1NC(=O)C1COc2ccccc2O1` (stereo not drawn), for which the MDR1-MDCK efflux ratio is 32.1; the intrinsic clearance, human liver microsomes came to 19.9 mL/min/kg; the intrinsic clearance, rat liver microsomes came out at 691 mL/min/kg.
`COc1ccc(-c2nc(CC(N)=O)sc2C)cc1.Cl`: the MDR1-MDCK efflux ratio is 0.246; the intrinsic clearance, human liver microsomes was 166 mL/min/kg; the intrinsic clearance, rat liver microsomes came to 111 mL/min/kg; the aqueous solubility came to 30.3 µg/mL.
Taken in the same sequence, the figures for `Cc1nc2cc(-c3nccn3C)nn2c(NCc2cccnc2)c1C` were 28.5, 14.7 mL/min/kg, 379 mL/min/kg and 55.7 µg/mL (≈ 167 µM).
Consider `COc1cccc(OC)c1-c1ccc(OCCN2CCCC2)cc1`, for which the MDR1-MDCK efflux ratio came out at 1.4; the intrinsic clearance, human liver microsomes was at most 4.74 mL/min/kg; the intrinsic clearance, rat liver microsomes turned out to be 2290 mL/min/kg.
Regarding `CC(C)CCNC(=O)c1ccc2ccccc2n1`, the intrinsic clearance, human liver microsomes was 168 mL/min/kg; the intrinsic clearance, rat liver microsomes is 640 mL/min/kg; the aqueous solubility worked out at 7.28 µg/mL (≈ 30 µM).
In the case of `CNCc1cc(N(C)C)nc(C2CCCN2C(=O)C2CCCC2)n1` (stereo not drawn), the MDR1-MDCK efflux ratio is 45.6; the intrinsic clearance, human liver microsomes is at most 4.74 mL/min/kg; the intrinsic clearance, rat liver microsomes is 249 mL/min/kg.
In the case of `CC(=O)N1CCN(C(=O)CS(=O)(=O)C23CC4CC(CC(C4)C2)C3)CC1`, the MDR1-MDCK efflux ratio was found to be 10.3; the intrinsic clearance, human liver microsomes was at most 4.74 mL/min/kg; the intrinsic clearance, rat liver microsomes is 298 mL/min/kg.
`COc1ccc(CNCc2cccc3ccccc23)cc1`: the MDR1-MDCK efflux ratio turned out to be 0.45; the intrinsic clearance, human liver microsomes was 194 mL/min/kg; the intrinsic clearance, rat liver microsomes was 620 mL/min/kg; the aqueous solubility was found to be 47.2 µg/mL (≈ 170 µM).
For `CC(=O)N1CCN(c2nc(C(F)(F)F)nc3sc(C)c(C)c23)CC1`, the MDR1-MDCK efflux ratio was found to be 1.22; the fraction unbound, human plasma stood at 0.0136; the fraction unbound, rat plasma is 0.0421; the intrinsic clearance, human liver microsomes came to 43 mL/min/kg. The intrinsic clearance, rat liver microsomes was found to be 217 mL/min/kg and the aqueous solubility worked out at 51.3 µg/mL (≈ 143 µM).
In turn, `Cc1nc(C)c(C(=O)Nc2ccc3ncccc3c2)o1` displayed an intrinsic clearance, human liver microsomes of 13.4 mL/min/kg and an intrinsic clearance, rat liver microsomes of 34.8 mL/min/kg.
On to `COc1cc(N2CCN(C)CC2)ccc1Nc1ncc2c(n1)N(C)c1ccccc1C(=O)N2`, for which the MDR1-MDCK efflux ratio stood at 45; the intrinsic clearance, human liver microsomes worked out at 14.2 mL/min/kg; the intrinsic clearance, rat liver microsomes worked out at 131 mL/min/kg; the aqueous solubility worked out at 61.7 µg/mL (≈ 138 µM).
Consider `N#Cc1ccc(OC2CCNCC2)cc1`, for which the intrinsic clearance, human liver microsomes is at most 4.74 mL/min/kg and the intrinsic clearance, rat liver microsomes was at most 10.7 mL/min/kg.
Taken in the same sequence, the figures for `CCCn1ncc(CN2CCC(c3ncc[nH]3)CC2)c1C` were 7.33 mL/min/kg and 498 mL/min/kg.
`Cc1csc(NC(=O)CCc2ccncc2)n1`: the MDR1-MDCK efflux ratio was 0.876; the intrinsic clearance, human liver microsomes was at most 4.74 mL/min/kg; the intrinsic clearance, rat liver microsomes stood at 45.3 mL/min/kg; the aqueous solubility amounted to 38.1 µg/mL (≈ 154 µM).
For `Cc1cc(Cn2cnc(C#N)c2C#N)c2ccccc2n1`, the MDR1-MDCK efflux ratio was 2.84; the intrinsic clearance, human liver microsomes was at most 4.74 mL/min/kg; the intrinsic clearance, rat liver microsomes stood at 36.7 mL/min/kg.
